Patent US6274715A, “Tricyclic erythromycin derivatives” (priority 1997, dated 2001)
Converted amounts (≈) assume the structure as drawn.

Key:
Type in all cases: cell-based
[1] = test system: KLEBSIELLA PNEUMONIAE ATCC 8045; experiment: In vitro antibacterial activity, MIC, BHI agar dilution; conditions: K. pneumoniae ATCC 8045, unit assumed
ESCHERICHIA COLI DC-2 = experiment: as above; conditions: E. coli DC-2, unit assumed
[2] = test system: STAPHYLOCOCCUS AUREUS A-5278; experiment: as above; conditions: S. aureus A-5278, unit assumed
[3] = test system: MYCOBACTERIUM SMEGMATIS ATCC 114; experiment: as above; conditions: M. smegmatis ATCC 114, unit assumed
[4] = test system: STAPHYLOCOCCUS AUREUS CMX 642A; experiment: as above; conditions: S. aureus CMX 642A, unit assumed
[5] = test system: PSEUDOMONAS AERUGINOSA K799/WT; experiment: as above; conditions: P. aeruginosa K799/WT, unit assumed
[6] = test system: STREPTOCOCCUS PYOGENES 930; experiment: as above; conditions: S. pyogenes 930, unit assumed
[7] = test system: PSEUDOMONAS AERUGINOSA DPHD-2862; experiment: as above; conditions: P. aeruginosa DPHD-2862, unit assumed
PSEUDOMONAS CEPACIA 296I = experiment: as above; conditions: P. cepacia 296I, unit assumed
[8] = test system: STAPHYLOCOCCUS AUREUS NCTC10649M; experiment: as above; conditions: S. aureus NCTC10649M, unit assumed
[9] = test system: STAPHYLOCOCCUS AUREUS ATCC 6538P; experiment: as above; conditions: S. aureus ATCC 6538P, 35-37° C., 20 to 24 hours, unit assumed
[10] = test system: STREPTOCOCCUS PYOGENES PIU 2548; experiment: as above; conditions: S. pyogenes PIU 2548, unit assumed
[11] = test system: STAPHYLOCOCCUS EPIDERMIDIS 3519; conditions: S. epidermidis 3519; BHI agar; unit assumed
STR[…] 508 = experiment: In vitro antibacterial activity, MIC, BHI agar dilution; conditions: S. agalactiae CMX 508, unit assumed
Method in brief: (§1)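 Agar dilution in BHI: plates inoculated with 1:100 dilutions of organisms (1:10 for Micrococcus and Streptococcus), incubated 20-24 h at 35-37° C, then inspected for the lowest inhibitory concentration against a drug-free growth control.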

M[…] ATCC 9341 = experiment: as above; conditions: M. luteus ATCC 9341, unit assumed
Method in brief: as §1

EN[…] ATCC 8043 = experiment: as above; conditions: E. faecium ATCC 8043, unit assumed
Method in brief: as §1

M[…] ATCC 4698 = experiment: as above; conditions: M. luteus ATCC 4698, unit assumed
Method in brief: as §1

[12] = test system: STREPTOCOCCUS BOVIS A-5169; experiment: as above; conditions: S. bovis A-5169, unit assumed
[13] = test system: PSEUDOMONAS AERUGINOSA DPHD-5263; experiment: as above; conditions: P. aeruginosa DPHD-5263, unit assumed
[14] = test system: STAPHYLOCOCCUS AUREUS 1775; experiment: as above; conditions: S. aureus 1775, unit assumed
[15] = test system: PSEUDOMONAS AERUGINOSA BMH10; experiment: as above; conditions: P. aeruginosa BMH10, unit assumed
[16] = test system: STAPHYLOCOCCUS AUREUS CMX 553; experiment: as above; conditions: S. aureus CMX 553, unit assumed
[17] = test system: PSEUDOMONAS AERUGINOSA 5007; experiment: as above; conditions: P. aeruginosa 5007, unit assumed
[18] = test system: STAPHYLOCOCCUS AUREUS A5177; experiment: as above; conditions: S. aureus A5177, unit assumed
ESCHERICHIA COLI H560 = experiment: as above; conditions: E. coli H560, unit assumed
[19] = test system: PSEUDOMONAS AERUGINOSA K799/61; experiment: as above; conditions: P. aeruginosa K799/61, unit assumed
ESCHERICHIA COLI KNK 437 = conditions: E. coli KNK 437; BHI agar; unit assumed
[20] = test system: STREPTOCOCCUS PYOGENES EES61; experiment: In vitro antibacterial activity, MIC, BHI agar dilution; conditions: S. pyogenes EES61, unit assumed
[21] = test system: ENTEROBACTER AEROGENES ATCC 13048; experiment: as above; conditions: E. aerogenes ATCC 13048, unit assumed
[22] = test system: ACINETOBACTER CALCOACETICUS CMX 669; experiment: as above; conditions: A. calcoaceticus CMX 669, unit assumed
[23] = test system: PROVIDENCIA STUARTII CMX 640; conditions: P. stuartii CMX 640; BHI agar; unit assumed
ESCHERICHIA COLI SS = experiment: In vitro antibacterial activity, MIC, BHI agar dilution; conditions: E. coli SS, unit assumed
CANDIDA ALBICANS CCH 442 = experiment: as above; conditions: C. albicans CCH 442, unit assumed

CC[C@H]1OC(=O)[C@H](C)C(=O)[C@H](C)[C@@H](O[C@@H]2O[C@H](C)C[C@H](N(C)C)[C@H]2O)[C@](C)(OC)C[C@@H](C)C2=NC[C@H](Cc3ccc(OCc4ccccc4)cc3)N3C(=O)O[C@@]1(C)[C@H]3[C@H]2C [Example 64]
MIC [1]: > 100 µg/mL
MIC (ESCHERICHIA COLI DC-2): > 100 µg/mL
MIC [2]: 50 µg/mL (≈ 59.9 µM)
MIC [3]: 1.56 µg/mL (≈ 1.87 µM)
MIC [4]: 0.39 µg/mL (≈ 0.468 µM)
MIC [5]: > 100 µg/mL
MIC [6]: 25 µg/mL (≈ 30 µM)
MIC [7]: > 100 µg/mL
MIC (PSEUDOMONAS CEPACIA 296I): > 100 µg/mL
MIC [8]: 0.2 µg/mL (≈ 0.24 µM)
MIC [9]: 0.39 µg/mL (≈ 0.468 µM)
MIC [10]: 0.78 µg/mL (≈ 0.935 µM)
MIC [11]: 0.39 µg/mL (≈ 0.468 µM)
MIC (STR[…] 508): 0.1 µg/mL (≈ 0.12 µM)
MIC (M[…] ATCC 9341): 0.1 µg/mL (≈ 0.12 µM)
MIC (EN[…] ATCC 8043): 0.2 µg/mL (≈ 0.24 µM)
MIC (M[…] ATCC 4698): 0.78 µg/mL (≈ 0.935 µM)
MIC [12]: 0.1 µg/mL (≈ 0.12 µM)
MIC [13]: > 100 µg/mL
MIC [14]: 50 µg/mL (≈ 59.9 µM)
MIC [15]: > 100 µg/mL
MIC [16]: 0.2 µg/mL (≈ 0.24 µM)
MIC [17]: > 100 µg/mL
MIC [18]: 0.2 µg/mL (≈ 0.24 µM)
MIC (ESCHERICHIA COLI H560): > 100 µg/mL
MIC [19]: 12.5 µg/mL (≈ 15 µM)
MIC (ESCHERICHIA COLI KNK 437): > 100 µg/mL
MIC [20]: 0.05 µg/mL (≈ 0.0599 µM)
MIC [21]: > 100 µg/mL
MIC [22]: > 100 µg/mL
MIC [23]: > 100 µg/mL
MIC (ESCHERICHIA COLI SS): 6.2 µg/mL (≈ 7.43 µM)
MIC (CANDIDA ALBICANS CCH 442): 50 µg/mL (≈ 59.9 µM)

CC[C@H]1OC(=O)[C@H](C)C(=O)[C@H](C)[C@@H](O[C@@H]2O[C@H](C)C[C@H](N(C)C)[C@H]2O)[C@](C)(OC)C[C@@H](C)C2=NC[C@H](Cc3ccc(NC(=O)OCc4ccccc4)cc3)N3C(=O)O[C@@]1(C)[C@H]3[C@H]2C [Example 68]
MIC [1]: > 100 µg/mL
MIC (ESCHERICHIA COLI DC-2): 100 µg/mL (≈ 114 µM)
MIC [2]: > 100 µg/mL
MIC [3]: 3.1 µg/mL (≈ 3.53 µM)
MIC [4]: 0.2 µg/mL (≈ 0.228 µM)
MIC [5]: > 100 µg/mL
MIC [6]: 50 µg/mL (≈ 57 µM)
MIC [7]: > 100 µg/mL
MIC (PSEUDOMONAS CEPACIA 296I): > 100 µg/mL
MIC [8]: 0.2 µg/mL (≈ 0.228 µM)
MIC [9]: 0.2 µg/mL (≈ 0.228 µM)
MIC [10]: 0.78 µg/mL (≈ 0.889 µM)
MIC [11]: 0.39 µg/mL (≈ 0.445 µM)
MIC (STR[…] 508): 0.05 µg/mL (≈ 0.057 µM)
MIC (M[…] ATCC 9341): 0.1 µg/mL (≈ 0.114 µM)
MIC (EN[…] ATCC 8043): 0.2 µg/mL (≈ 0.228 µM)
MIC (M[…] ATCC 4698): 0.39 µg/mL (≈ 0.445 µM)
MIC [12]: 0.05 µg/mL (≈ 0.057 µM)
MIC [13]: > 100 µg/mL
MIC [14]: > 100 µg/mL
MIC [15]: > 100 µg/mL
MIC [16]: 0.2 µg/mL (≈ 0.228 µM)
MIC [17]: > 100 µg/mL
MIC [18]: 0.2 µg/mL (≈ 0.228 µM)
MIC (ESCHERICHIA COLI H560): 50 µg/mL (≈ 57 µM)
MIC [19]: 3.1 µg/mL (≈ 3.53 µM)
MIC (ESCHERICHIA COLI KNK 437): > 100 µg/mL
MIC [20]: 0.1 µg/mL (≈ 0.114 µM)
MIC [21]: > 100 µg/mL
MIC [22]: 100 µg/mL (≈ 114 µM)
MIC [23]: > 100 µg/mL
MIC (ESCHERICHIA COLI SS): 1.56 µg/mL (≈ 1.78 µM)
MIC (CANDIDA ALBICANS CCH 442): > 100 µg/mL
